Test [1] deals with MC3T3-E1 cells. Briefly: Crosstalk (Transwell co-culture) between MC3T3-E1 cells and RAW264.7 cells. Format: cell-based, mouse. The conditions noted are these: DHMBA 1 or 10 mM. Here is the method:
To investigate crosstalk between osteoblast MC3T3-E1 cells and macrophage RAW264.7 cells, an assay was performed using Transwell chambers (Corning Inc., Life Sciences, catalog no. CLS3464-48EA, USA) equipped with a polycarbonate filter (pore size […], diameter 6.5 mm). MC3T3-E1 cells (1×10^5 cells per 1 ml medium) were added in a-MEM medium (1 ml) containing 10% FBS and 1% P/S in the lower chamber. RAW264.7 cells were suspended in DMEM containing 10% FBS and 1% P/S, and 0.5 ml of the suspension (5×10^4 cells/ml medium) was added to the upper chamber of each Transwell. RAW264.7 cells were incubated at 37°C for 1 hour under 5% CO2 and 95% air to allow attachment to the upper chamber. The plates equipped with the Transwell chambers were then placed in an incubator at 37°C under 5% CO2 and 95% air. To induce inflammatory conditions in RAW264.7 cells, LPS (100 ng/ml medium) was added to the upper chamber containing RAW264.7 cells. […] MC3T3-E1 cells attached to the dishes (wells) were counted as described in the section "Cell proliferation assay". […]
Thereafter, a Transwell chamber was placed in each culture well, and RAW264.7 cells were added to the upper chamber at 0.5 ml (5×10^4 cells/ml medium), in the presence or absence of LPS (100 ng/ml medium). […] Cells attached to the dishes (wells) were counted as described in the section "Cell proliferation assay".

Test [2] concerns MC3T3-E1 cells. Briefly: Effects of conditioned medium of LPS-stimulated RAW264.7 cells on MC3T3-E1 cells. In kind it is cell-based, mouse. As to the method: A conditioned medium was obtained by culturing RAW264.7 cells.
RAW264.7 cells (1×10^5 cells/ml per well in a 24-well plate) were cultured for 3 days after reaching subconfluence in DMEM containing 10% FBS and 1% P/S in the presence or absence of LPS (concentration in the medium: 100 ng/ml). After the cells were cultured, the medium (conditioned medium) was collected.
To evaluate the effects of the conditioned medium on proliferation of MC3T3-E1 cells, MC3T3-E1 cells were cultured for 3 days in a-MEM containing 10% FBS and 1% P/S. The cells were then cultured for 3 days using either the conditioned medium (1 ml, control) cultured without LPS or the conditioned medium (0.25 or 0.50 ml per well, adjusted to 1 ml with normal medium) cultured with LPS in the presence or absence of DHMBA (1 or 10 mM).
Further, to examine the effects on cell death of MC3T3-E1 cells, the cells (1×10^5 cells/ml per well) were cultured for 3 days in a-MEM containing 10% FBS and 1% P/S. After reaching subconfluence, the medium was replaced. The cells were then further cultured for 48 hours in either the normal medium, the conditioned medium (1 ml) cultured without LPS, or the conditioned medium (0.25 or 0.50 ml per well, adjusted to 1 ml with normal medium) with either a reagent vehicle (1% ethanol as final concentration) or DHMBA (1 or 10 mM). After culture, the cells were detached from each culture well, and cell numbers were counted in the same manner as described above.
Further, the effects of Bay 11-7082, which is an NF-kB signaling inhibitor, on proliferation or cell death of MC3T3-E1 cells were investigated. First, to examine the effects of Bay 11-7082 on proliferation of MC3T3-E1 cells, the cells (1×10^5 cells/1 ml per well in a 24-well plate) were cultured for 3 days until reaching subconfluence in the presence of 10% FBS, 1% P/S, and either a reagent vehicle (1% ethanol as final concentration) or Bay 11-7082 (1, 10, 50, 100, or 1000 nM). Next, MC3T3-E1 cells were cultured for 3 days in the presence of the conditioned medium (0.5 ml per well, adjusted to a total of 1 ml with normal medium) with or without Bay 11-7082 (1 or 10 nM) in the presence or absence of DHMBA (10 mM).
In another experiment, to evaluate the effects of Bay 11-7082 on cell death of MC3T3-E1, the cells (1×10^5 cells/1 ml per well in a 24-well plate) were cultured in a-MEM containing 10% FBS and 1% P/S. After culturing for 3 days until reaching subconfluence, the medium was replaced with a-MEM (1 ml) containing either the normal medium or the conditioned medium prepared by adding the normal medium to 0.5 ml per well of the conditioned medium, adjusted to a total volume of 1 ml. The cells were then further cultured for 48 hours in the presence of Bay 11-7082 (1 or 10 nM), or Bay 11-7082 (10 nM) in combination with DHMBA (10 mM). After culture, the cells were detached from each culture well, and cell numbers were counted as described above.

The next test concerns RAW264.7 cells. The test can be described thus: TNF-a production assay (ELISA). In kind it is cell-based, mouse. To be noted: LPS 10 or 100 ng/ml, DHMBA 1 or 10 mM; Fig. 7A. As to the method: RAW264.7 cells (1× 10^5/ml per well) were cultured in DMEM containing 10% FBS and 1% P/S in a 24-well plate for 3 days until reaching subconfluence. […] The cells were detached from each culture dish to count the cell numbers as described in the section "Cell proliferation assay". […] The concentration of TNF-a in the medium was analyzed using a mouse TNF-a ELISA kit (catalog no. KHC301) purchased from Cayman Chemical Company (Ann Arbor, MI, USA) in accordance with the manufacturer's instructions. TNF-a production was expressed as the amount of TNF-a secreted into the medium in picograms per milliliter (pg/ml).
(An ELISA detects its analyte on a solid surface through an enzyme-linked reagent.)

For test [3] the following is noted: cited from earlier work; for peroxyl radical scavenging activity relative to Trolox: greater than Trolox.
Test [4] has as its system bone-metastatic prostate cancer cells. The conditions noted are these: earlier demonstration by the present inventors; cited from earlier work.

SMILES strings stand for the structures. Read-outs that look alike come from different tables or passages of the source.

Results on one compound are retold here after patent EP4778516A1, “CALCIFICATION ENHANCER FOR OSTEOBLAST MC3T3-E1 CELL” (Watanabe Oyster Laboratory Co., Ltd., priority 2023, dated 2025).

For the compound `COc1c(O)cc(CO)cc1O` [DHMBA, 3,5-dihydroxy-4-methoxybenzyl alcohol], the “decrease of proliferation of MC3T3-E1 cells by co-culture with RAW264.7 cells” value in the test on MC3T3-E1 cells [1] (LPS 100 ng/ml in upper chamber, 3 days, Fig. 5C) is “suppressed”. The “enhancement of death of MC3T3-E1 cells by co-culture with RAW264.7 cells” value in the test on MC3T3-E1 cells [1] (LPS 100 ng/ml, 48 hours, Fig. 5D) is reported as “prevented”. The “suppressive effect of DHMBA on conditioned-medium-induced suppression of proliferation, in combination with Bay 11-7082” value in the test with MC3T3-E1 cells [2] (DHMBA in the presence of Bay 11-7082) is “not further enhanced”. The “enhancement of death of MC3T3-E1 cells by the conditioned medium” value with MC3T3-E1 cells [2] (conditioned medium 0.5 ml, DHMBA 1 or 10 mM, 48 hours, Fig. 6B) is “suppressed”. Also, in the test on MC3T3-E1 cells [2] (conditioned medium with LPS stimulation, DHMBA 1 or 10 mM, 3 days, Fig. 6A), the “inhibition of proliferation of MC3T3-E1 cells by the conditioned medium” value is “prevented”. For the same compound, in the test on RAW264.7 cells, the “LPS-induced increase of production of TNF-a in RAW264.7 cells” value is reported as “suppressed”. In test [3] (compared with other known antioxidants such as resveratrol and ascorbic acid), the “reaction with HOO(•)” value is recorded as “more rapidly”. In addition, the “peroxyl radical scavenging activity relative to Trolox” value in test [3] (in aqueous media) is “four orders of magnitude”. Moreover, the “peroxyl radical scavenging activity relative to Trolox” value in test [3] (in lipid media) is recorded as “approximately 15 fold”. Further, in test [4], the “metastatic activity of bone-metastatic prostate cancer cells” value is given as “suppressive effects” and the “proliferation of bone-metastatic prostate cancer cells” value is “suppressive effects”.
